Assay [1] addresses T1, αvβ3 (Homo sapiens, UniProt P05106+P06756). Description: Solid-phase assay: biotinylated-fibrinogen binding to immobilized αvβ3. The settings on record: for pIC50: Solid Phase Assay, biotinylated-fibrinogen 10 nM, 2 hours at 37° C; for Selectivity: αIIbβ3 vs αvβ3 solid phase IC50. Also on record: placental αvβ3; from tissue; host or cells: placenta. As to the method:
(§1) Assay 1. Fibrinogen Binding to Immobilized αIIbβ3 and αvβ3 (Solid-Phase Assays) The wells of plastic microtiter plates were coated overnight at 4° C. with purified active αIIbβ3 (Calbiochem) or placental αvβ3 at 0.5 ug/mL (100 uL/well) in a buffer containing 150 mM NaCl, 20 mM Tris, pH 7.4, 1 mM MgCl2, 0.2 mM MnCl2, and including 1 mM CaCl2 for αIIbβ3 Blocking of nonspecific sites was achieved by incubating the wells with 35 mg/mL bovine serum albumin (BSA) for at least 2 hours at 37° C. Biotinylated-fibrinogen (10 nM) was added in 0.2 mL binding buffer (100 mM NaCl, 50 mM Tris, pH 7.4, 1 mM MgCl2, 0.2 mM MnCl2 and 1 mg/mL BSA including 1 mM CaCl2 for αIIbβ3) to the wells in triplicate in the absence or presence of increasing concentrations of compounds of interest (0.001-100 uM) and further incubated for 2 hours at 37° C. Nonbound fibrinogen was removed by five washes with binding buffer. Avidin conjugated to alkaline phosphatase (Sigma), diluted in binding buffer, was added and incubated for two hours at 37° C. The plates were washed five times with binding buffer, and after addition of the substrate PNPP (Pierce), the enzyme activity was measured by the absorbance at 405 nm. The concentration of inhibitor required to inhibit 50% of biotinylated-fibrinogen binding was defined as IC50 determined by a nonlinear, sigmoidal dose response variable slope from the GraphPad Prism software.

Assay [2] concerns the target T2, αIIbβ3 (Homo sapiens, UniProt P05106+P08514).
T2 construct: purchased Calbiochem
Description: Solid-phase assay: biotinylated-fibrinogen binding to immobilized αIIbβ3. The following applies: biotinylated-fibrinogen 10 nM, 2 hours at 37° C, 1 mM CaCl2, read-out: IC50 αIIbβ. How it is done:
Assay 1. Fibrinogen Binding to Immobilized αIIbβ3 and αvβ3
as §1, with “The” for “Assay 1. Fibrinogen Binding to Immobilized αIIbβ3 and αvβ3 (Solid-Phase Assays) The”

Assay [3] deals with HT29. Description: Cytotoxicity (MTT), HT29. Type of assay: cell-based. The settings on record: Homo sapiens, HT-29, 72 hours, 2500 cells/well. As to the method: (§2) Assay 3. Cytotoxicity (MTT)
(§3) The wells of microtiter plates were seeded with 2000 cells/well T24, 2500 cells/well HT29 or 5000 cells/well HMVEC (Cell Systems) in 100 uL, followed by an overnight culture for cell adhesion. The next day, the media is supplemented with 100 uL of 10-fold dilution of compound of interest starting at 10 uM. Following culture for 72 hours, 3-(4, 5-dimethyl-2-thiazolyl)-2, 5-diphenyltetrazolium bromide (MTT; Sigma) at 2 mg/mL was added to each well (50 uL/well) and further incubated for 4 hours at 37° C. The medium was flicked out and 200 uL of a 1:1 solution of ethanol:acetone followed by 25 uL of glycine buffer (0.1 M glycine, 0.1M NaCl, pH 10.5) is added and the color measured by the absorbance at 570 nm.

The test system of assay [4] is HMVEC. The assay is described as follows: Cytotoxicity (MTT), HMVEC. The settings on record: 72 hours, 5000 cells/well. Type of assay: cell-based. As to the method: as §2, §3
Assay [5] deals with T3, α5β1 (Homo sapiens, UniProt P05556+P08648).
T3 construct: Cells HT29, K562, or K562 transfected with αvβ3; endogenous in cells; host or cells: K562
The assay is described as follows: Cell attachment assay, α5β1. Type of assay: cell-based. The following applies: 1 hour at 37° C. As to the method:
(§4) The wells of 96-well plates (Immunolon) were coated, by incubation overnight at 4° C., with 5 ug/mL vitronectin, 2 ug/mL osteopontin, or fibronectin or 10 mg/mL BSA in PBS. The protein solution was flicked out and the wells were blocked with 10 mg/mL BSA (0.1 mL) for 1-2 hours at 37° C. Cells HT29, K562, or K562 transfected with αvβ3 (Blystone et al., 1994) were loaded with a fluorescent marker, 5-chloromethylfluorescein diacetate (Molecular Probes, Eugene, OR) for 1 hour at 37° C., then incubated in fresh medium without the fluorescent marker for 1 hour. Cells were lifted with trypsin-EDTA and washed two times with Hank's balanced salt solution minus cations (Sigma) supplemented with 1 mM MgCl2 Cells (75,000 cells/well) were added to coated plates in triplicate and allowed to attach at 37° C. for 1 hour in the presence or absence of specific antibodies (5 ug/mL) or 10-fold dilutions of compounds of interest starting at 10 uM. Nonadherent cells were removed by gentle washing twice with PBS. The adherent cells were solubilized with 1% triton x-100 and detected using a fluorescence plate reader (DYNEX Technologies). The number of attached cells was calculated based upon standard curves for each cell line used in the experiment. Non-specific cell attachment (attachment to wells coated with BSA) was always less than 5%.

Assay [6] has as its system B16F10. The assay is described as follows: Cytotoxicity (MTT), B16F10. Type of assay: cell-based. The following applies: Mus musculus, B16-F10, 72 hours. How it is done: [The source words this procedure for another cell line and reports this cell line under the same test.] as §2, §3
Assay [7] addresses T4, αvβ5 (Homo sapiens, UniProt P06756+P18084).
T4 construct: Cells HT29, K562, or K562 transfected with αvβ3; endogenous in cells; host or cells: HT29
Description: Cell attachment assay, αvβ5. The class given is cell-based. The following applies: 1 hour at 37° C. How it is done:
as §4

For assay [8], the target named is T1, αvβ3. The assay is described as follows: Cell attachment assay, αvβ3. The settings on record: 1 hour at 37° C. The class given is cell-based. As to the method:
as §4

Experimental findings from patent US6274620A, “Thiophene integrin inhibitors” (BioChem Pharma Inc., priority 2000, dated 2001) are described below.

Structures are written as SMILES. pIC50: −log10 of the molar value. Structures can show the parent of a compound that is named as a salt. Bounds are passed on as bounds.

T2 sequence (P08514 32-887 limits assumed): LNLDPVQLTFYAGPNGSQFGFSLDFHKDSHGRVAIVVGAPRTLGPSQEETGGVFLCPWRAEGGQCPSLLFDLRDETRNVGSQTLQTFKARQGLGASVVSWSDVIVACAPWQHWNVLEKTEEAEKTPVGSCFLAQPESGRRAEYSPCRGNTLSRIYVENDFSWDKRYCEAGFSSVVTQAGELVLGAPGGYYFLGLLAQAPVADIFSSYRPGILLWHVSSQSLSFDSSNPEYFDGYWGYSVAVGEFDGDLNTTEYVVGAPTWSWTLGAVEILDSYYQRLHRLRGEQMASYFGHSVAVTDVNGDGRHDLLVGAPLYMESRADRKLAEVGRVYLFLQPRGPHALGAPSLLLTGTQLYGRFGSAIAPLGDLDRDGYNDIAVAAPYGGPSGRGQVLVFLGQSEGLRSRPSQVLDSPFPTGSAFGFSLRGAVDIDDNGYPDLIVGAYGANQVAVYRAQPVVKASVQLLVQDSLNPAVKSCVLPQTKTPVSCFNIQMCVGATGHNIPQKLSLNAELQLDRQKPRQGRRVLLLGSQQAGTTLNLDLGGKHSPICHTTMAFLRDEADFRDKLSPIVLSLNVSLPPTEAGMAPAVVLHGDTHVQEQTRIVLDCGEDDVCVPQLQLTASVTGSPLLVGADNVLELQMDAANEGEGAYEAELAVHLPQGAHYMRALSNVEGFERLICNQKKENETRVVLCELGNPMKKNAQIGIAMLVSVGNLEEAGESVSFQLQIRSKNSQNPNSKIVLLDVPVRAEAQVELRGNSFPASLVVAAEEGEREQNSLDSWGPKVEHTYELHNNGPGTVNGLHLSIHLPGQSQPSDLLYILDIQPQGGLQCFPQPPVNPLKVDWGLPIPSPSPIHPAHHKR
T2 sequence (P08514 891-1039 limits assumed): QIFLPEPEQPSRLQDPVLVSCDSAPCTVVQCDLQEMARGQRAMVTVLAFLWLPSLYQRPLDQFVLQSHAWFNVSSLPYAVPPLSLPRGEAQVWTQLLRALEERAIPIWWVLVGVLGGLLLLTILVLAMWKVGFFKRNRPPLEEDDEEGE
T2 sequence (P05106 27-788): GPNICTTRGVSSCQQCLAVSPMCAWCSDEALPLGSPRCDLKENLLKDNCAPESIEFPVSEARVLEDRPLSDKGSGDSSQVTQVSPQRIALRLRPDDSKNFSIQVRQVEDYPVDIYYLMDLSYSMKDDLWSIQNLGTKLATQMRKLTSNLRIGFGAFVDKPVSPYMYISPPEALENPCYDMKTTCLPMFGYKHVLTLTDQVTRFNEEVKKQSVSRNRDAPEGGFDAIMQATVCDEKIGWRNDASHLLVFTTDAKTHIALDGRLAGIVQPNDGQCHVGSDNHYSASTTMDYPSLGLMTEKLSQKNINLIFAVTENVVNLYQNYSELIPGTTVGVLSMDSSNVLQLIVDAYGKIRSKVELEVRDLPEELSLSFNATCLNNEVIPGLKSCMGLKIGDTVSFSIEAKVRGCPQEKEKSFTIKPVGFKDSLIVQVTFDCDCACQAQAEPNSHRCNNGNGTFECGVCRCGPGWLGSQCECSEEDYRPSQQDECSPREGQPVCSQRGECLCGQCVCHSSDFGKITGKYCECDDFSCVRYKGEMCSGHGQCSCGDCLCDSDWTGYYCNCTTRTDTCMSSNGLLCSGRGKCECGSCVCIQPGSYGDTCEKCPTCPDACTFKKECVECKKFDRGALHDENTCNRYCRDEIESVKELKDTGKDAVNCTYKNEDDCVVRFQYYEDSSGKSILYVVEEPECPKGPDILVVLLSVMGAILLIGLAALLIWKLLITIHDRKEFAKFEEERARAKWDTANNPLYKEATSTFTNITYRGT
T1 sequence (P06756 31-889 limits assumed): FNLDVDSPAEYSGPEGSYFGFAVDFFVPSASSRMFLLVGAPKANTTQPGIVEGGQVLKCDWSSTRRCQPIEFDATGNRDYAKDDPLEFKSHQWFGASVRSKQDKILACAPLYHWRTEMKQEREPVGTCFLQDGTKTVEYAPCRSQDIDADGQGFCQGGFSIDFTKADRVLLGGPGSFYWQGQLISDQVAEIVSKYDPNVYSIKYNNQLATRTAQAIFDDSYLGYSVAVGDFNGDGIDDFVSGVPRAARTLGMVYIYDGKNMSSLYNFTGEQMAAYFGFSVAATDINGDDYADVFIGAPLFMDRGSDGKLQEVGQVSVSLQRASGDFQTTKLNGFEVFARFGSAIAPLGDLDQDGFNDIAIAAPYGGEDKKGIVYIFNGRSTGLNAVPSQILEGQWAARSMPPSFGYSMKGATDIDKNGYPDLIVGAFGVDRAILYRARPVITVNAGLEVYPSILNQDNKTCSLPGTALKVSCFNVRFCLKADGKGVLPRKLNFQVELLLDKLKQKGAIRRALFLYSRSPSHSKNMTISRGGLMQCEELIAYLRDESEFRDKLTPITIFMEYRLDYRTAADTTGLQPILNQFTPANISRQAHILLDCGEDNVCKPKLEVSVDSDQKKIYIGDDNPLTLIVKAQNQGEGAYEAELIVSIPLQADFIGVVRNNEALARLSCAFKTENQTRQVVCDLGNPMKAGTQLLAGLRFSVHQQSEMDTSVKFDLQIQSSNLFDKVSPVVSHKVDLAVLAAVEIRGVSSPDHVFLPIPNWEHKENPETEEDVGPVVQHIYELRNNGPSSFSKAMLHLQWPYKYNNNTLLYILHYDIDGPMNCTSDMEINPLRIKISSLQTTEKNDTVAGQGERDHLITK
T1 sequence (P06756 891-1048 limits assumed): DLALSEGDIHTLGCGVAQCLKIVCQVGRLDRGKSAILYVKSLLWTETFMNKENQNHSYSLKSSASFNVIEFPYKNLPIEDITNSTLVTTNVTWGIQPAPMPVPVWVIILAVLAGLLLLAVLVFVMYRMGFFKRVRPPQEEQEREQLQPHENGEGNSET
T1 sequence (P05106 27-788): as the sequence (P05106 27-788) above
T4 sequence (P06756 31-889 limits assumed): as the sequence (P06756 31-889 limits assumed) above
T4 sequence (P06756 891-1048 limits assumed): as the sequence (P06756 891-1048 limits assumed) above
T4 sequence (P18084 24-799): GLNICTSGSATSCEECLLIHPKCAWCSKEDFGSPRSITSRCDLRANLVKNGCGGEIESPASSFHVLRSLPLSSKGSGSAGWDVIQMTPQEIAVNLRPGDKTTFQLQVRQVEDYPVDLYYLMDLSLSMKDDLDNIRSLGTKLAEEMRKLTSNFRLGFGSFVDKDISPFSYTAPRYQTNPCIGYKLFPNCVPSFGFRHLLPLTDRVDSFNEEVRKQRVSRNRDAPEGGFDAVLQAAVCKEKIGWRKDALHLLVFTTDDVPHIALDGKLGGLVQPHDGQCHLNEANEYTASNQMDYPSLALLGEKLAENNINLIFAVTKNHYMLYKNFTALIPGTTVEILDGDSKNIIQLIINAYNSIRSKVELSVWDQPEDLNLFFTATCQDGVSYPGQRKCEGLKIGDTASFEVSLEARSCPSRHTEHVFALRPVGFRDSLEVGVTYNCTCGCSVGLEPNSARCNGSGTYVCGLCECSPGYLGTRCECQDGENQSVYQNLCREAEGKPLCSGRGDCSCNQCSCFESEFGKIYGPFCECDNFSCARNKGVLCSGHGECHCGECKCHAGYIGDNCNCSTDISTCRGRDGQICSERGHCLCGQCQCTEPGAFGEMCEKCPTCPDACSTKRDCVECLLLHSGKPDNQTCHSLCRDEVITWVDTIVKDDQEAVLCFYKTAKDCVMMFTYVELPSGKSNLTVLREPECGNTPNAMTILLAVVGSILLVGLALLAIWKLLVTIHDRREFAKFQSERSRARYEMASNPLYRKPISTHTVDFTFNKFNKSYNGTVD

For orientation: pIC50 means −log10 of the IC50, conventionally taken in molar units. For `CCOC(=O)[C@H](CNC(=O)c1ccc(-c2cccc(NC(=N)N)c2)s1)NS(=O)(=O)c1c(C)cc(C)cc1C` [AB-2, 5-(3-Guanidino-phenyl)-thiophene-2-carboxylic acid [2-carbamoyl-2-(2,4,6-trimethyl-benzenesulfonylamino)-ethyl]-carboxylic acid ethyl ester], the pIC50 in assay [1] is 6.98.
Still for that read-out and setting: with `Cc1cc(C)c(S(=O)(=O)NC(CNC(=O)c2ccc(-c3cccc(NC(=N)N)c3)s2)C(N)=O)c(C)c1` (stereo not shown) [AB-4, 5-(3-Guanidino-phenyl)-thiophene-2-carboxylic acid [2-carbamoyl-2-(2,4,6-trimethyl-benzenesulfonylamino)-ethyl]-amide hydrochloride salt] the figure was 7.44.
`Cc1cc(C)c(S(=O)(=O)NC(CNC(=O)c2ccc(-c3cccc(NC(=N)N)c3)s2)C(N)=O)c(C)c1` (stereo not shown) [AC-1, 5-(3-Guanidino-phenyl)-thiophene-2-carboxylic acid [2-carbamoyl-2-(2,4,6-trimethyl-benzenesulfonylamino)-ethyl]-amide hydrochloride salt] had a pIC50 in assay [1] of 6.54.
As for `N=C(N)NCc1cccc(-c2ccc(C(=O)NC[C@H](NS(=O)(=O)c3ccccc3)C(=O)O)s2)c1` [Compound E-2, 2-Benzenesulfonylamino-3-{[5-(3-guanidinomethyl-phenyl)-thiophene-2-carbonyl]-amino}-propionic acid trifluoroacetic acid salt], the pIC50 in assay [2] was 9.26; in assay [3], less than 5.00; in assay [4], 6.70; in assay [5] it was 6.19; in assay [6], 5.89; in assay [7] it was 7.14. For the same molecule, the pIC50 is 9.74 in assay [8] and 8.57 in assay [1]. The molecule also registered a Selectivity in assay [1] of 0.2.
Regarding `Cc1cc(C)c(S(=O)(=O)N[C@@H](CNC(=O)c2ccc(-c3cccc(CNC(=N)N)c3)s2)C(=O)O)c(C)c1` [Compound F-2, 3-{[5-(3-Guanidinomethyl-phenyl)-thiophene-2-carbonyl]-amino}-2-(2,4,6-trimethyl-benzenesulfonylamino)-propionic acid trifluoroacetic acid salt], the pIC50 in assay [2] is 9.60; in assay [3] it was 5.34; in assay [4] it was 7.51; in assay [5], 7.15; in assay [6], 6.72; in assay [7] it was 7.96. The values for the pIC50 in assay [8] and in assay [1] were 8.54 and 8.09, respectively. In assay [1], this molecule came in with a Selectivity of 0.03.
Take `N=C(N)Nc1cccc(-c2ccc(C(=O)NC[C@H](NS(=O)(=O)c3ccccc3)C(=O)O)s2)c1` [Compound K-3, 2-Benzenesulfonylamino-3-{[5-(3-guanidino-phenyl)-thiophene-2-carbonyl]-amino}-propionic acid (trifluoroacetic acid salt)]: the pIC50 in assay [2] is 8.85; in assay [3], 5.29; in assay [4], 7.35; in assay [5], 7.10; in assay [6] it was 6.49; in assay [7] it was 8.19. In addition, the values for the pIC50 in assay [8] and in assay [1] were 8.55 and 8.82, respectively. The Selectivity in assay [1] amounted to 1.
Regarding `Cc1cc(C)c(S(=O)(=O)N[C@@H](CNC(=O)c2ccc(-c3cccc(NC(=N)N)c3)s2)C(=O)O)c(C)c1` [Compound M-3, 3-{[5-(3-Guanidino-phenyl)-thiophene-2-carbonyl]-amino}-2-(2,4,6-trimethyl-benzenesulfonylamino)-propionic acid (trifluoroacetic acid salt)], the pIC50 in assay [2] is 8.96; in assay [3] it was 5.16; in assay [4] it was 6.85; in assay [5], 7.47; in assay [6], 6.59; in assay [7] it was 8.80. Moreover, the pIC50 is 10.74 in assay [8] and 8.72 in assay [1]. Moreover, the Selectivity in assay [1] stood at 0.6.
For `Cc1cc(C)c(S(=O)(=O)N[C@@H](CNC(=O)c2ccc(/C=C/CNC(=N)N)s2)C(=O)O)c(C)c1` [Compound U-2, (S)-3-{[5-(3-Guanidino-(E)-propenyl)-thiophene-2-carbonyl]-amino}-2-(2,4,6-trimethyl-benzenesulfonylamino)-propionic acid trifluoroacetic acid salts], the negative logarithm of the IC50 (pIC50) was 9.27 in assay [2]; 5.32 in assay [3]; 7.59 in assay [4]; 8.21 in assay [5]; 6.74 in assay [6]; 8.22 in assay [7]. Moreover, the negative-log IC50 (pIC50) in assay [8] is 8.82; in assay [1], 9.30. Besides, in assay [1], the Selectivity was 1.
Molecule `Cc1cc(C)c(S(=O)(=O)NC(CNC(=O)c2ccc(-c3cccc(NC(=N)N)c3)s2)C(=O)Nc2nccs2)c(C)c1` (stereo not shown) [Compound X-5, 5-(3-Guanidino-phenyl)-thiophene-2-carboxylic acid [2-(thiazol-2-ylcarbamoyl)-2-(2,4,6-trimethyl-benzenesulfonylamino)-ethyl]-amide hydrochloride salt] had a pIC50 in assay [1] of 6.44.
